Laboratory results taken from patent publication US20130115624A1, “Methods To Identify Modulators” (Givaudan S.A., priority 2010, published 2013).
Read-outs that look alike come from different tables or passages of the source.

Tested on: Sham Transfected HEK293T/G16gust44 cells
Experimental: HEK293T/G16gust44 cells were used; they were formed as described in WO 2004/055048. The host cell line HEK-293T is commercially available from the American Tissue Culture Collection (ATCC), ATCC®#CRL-11268.
On day 0, the HEK293T/G16gust44 cells were plated in 96-well black wall, clear-bottom plates at a density of 15,000 cells per well and grown overnight in growth media (Dulbecco's modified Eagle's medium (DMEM) with 10% (v/v) heat-inactivated fetal bovine serum, 2 mM L-glutamine, 100 units/ml penicillin, 100 μg/ml streptomycin).
On day 1, the media was changed to an antibiotic-free and serum-free DMEM, and the cells were transfected with Lipofectamine 2000 (Invitorgen) according to the manufacturer's recommendations.
Per well of a 96-well plate, 150 ng of vector DNA (TAS2R41 expression vectors from example 1) was diluted in 12.5 μl of DMEM. In a second tube, 0.3 μl of Lipofectamine 2000 was diluted in 12.5 μl of DMEM and incubated for 5 min at room temperature. After the 5 min, both solutions were mixed and incubated for 20 min at RT.
The growth medium in the plate was exchanged with 50 μl of DMEM and 25 μl of the lipofectamine/DNA mixture (formed in the step above) and the cells were incubated for a further 3-4 hours at 37° in a humidified atmosphere. This mixture was then replaced with an antibiotic-free, serum-containing DMEM.
The above procedure was also carried out for HEK293T/G16gust44 cells formed as described in WO 2004/055048 with the exception that no DNA was added during the process (these cells are termed Sham transfected cells);
Each sample (receptors as well as controls) contained a final concentration of 0.02% Dimethyl sulphoxide (DMSO) to allow for comparability of all examples below.
On day 0, the HEK293T cells formed as described in example 2, were seeded in antibiotic-free growth medium (standard DMEM with 10% (v/v) heat-inactivated fetal bovine serum, 2 mM L-glutamine […]) into black wall/clear bottom 96-well plates, coated with poly(ethylenimine) (0.005% v/v) at a concentration of 15,000 cells per well and incubated for 48 hours in humidified atmosphere (37° C., 5% CO2).
Prior to performing the assay, the growth medium was discarded and the cells were left in a humidified atmosphere (37° C., 5% CO2) for 1 hour with 50 μl of loading buffer consisting of 1.5 μM Fluo-4 AM and […] probenicid (Sigma-Aldrich, St. Louis, Mo., US) in DMEM.
Following this the 96-well plate was washed 5 times with 100 μl of assay buffer (130 mM NaCl, 5 mM KCl, 10 mM 4-(2-hydroxyethyl)-1-piperazineethanesulfonic acid (HEPES), 2 mM CaCl2, and 5 mM dextrose, pH 7.4) per well, using an automated plate washer (BioTek).
The plate was then further incubated for 30 minutes at room temperature in the dark to allow for complete de-esterification of the Fluo-4. Afterwards the plate was washed 5 times with 100 μl of assay buffer per well, and reconstituted with 100 μl of assay buffer per well.
Cyclamate solutions ranging in concentration from 250 mM to 800 mM were prepared in assay buffer.
To test receptor activation 20 μl of one of these cyclamate test solutions was added to the assay buffer of at least one well of the 96 well plate. This step was repeated until all cyclamate solutions of differing concentrations had been added to at least one well. Care was taken to ensure that only one cyclamate solution was added per well. The resulting cyclamate concentrations in the well plates ranged in concentration from 25 mM to 80 mM (This is due to the dilution of the cyclamate solution in the assay buffer present in the well).
For assay reading, the plate was placed in a Fluorometric Imaging Plate Reader (FLIPR) (FLIPR-TETRA™, Molecular Devices, Sunnyvale, Calif., US).

O=S(=O)(O)NC1CCCCC1 [Cyclamate, cyclamate]
Cyclamate Average ΔF/F0 (25 mM cyclamate in well): 0.1588 | Cyclamate Average ΔF/F0 (30 mM cyclamate in well): 0.1665 | Cyclamate Average ΔF/F0 (35 mM cyclamate in well): 0.1676 | Cyclamate Average ΔF/F0 (40 mM cyclamate in well): 0.1718 | Cyclamate Average ΔF/F0 (45 mM cyclamate in well): 0.1765 | Cyclamate Average ΔF/F0 (50 mM cyclamate in well): 0.1676 | Cyclamate Average ΔF/F0 (55 mM cyclamate in well): 0.1682 | Cyclamate Average ΔF/F0 (60 mM cyclamate in well): 0.1453 | Cyclamate Average ΔF/F0 (65 mM cyclamate in well): 0.1382 | Cyclamate Average ΔF/F0 (70 mM cyclamate in well): 0.1529 | Cyclamate Average ΔF/F0 (75 mM cyclamate in well): 0.1329 | Cyclamate Average ΔF/F0 (80 mM cyclamate in well): 0.1465
